Assay results from paper PMC11596366, “Silybin Derivatives Produced by γ-Irradiation and Their Tyrosinase Inhibitory Activities” (Molecules, 2024).

What was measured:
tyrosinase = system: tyrosinase; set-up: method as in PMID 30871862; settings: against both monophenolase and diphenolase; cited from earlier work
Mushroom tyrosinase = Mushroom tyrosinase (Agaricus bisporus, UniProt C7FF04); assay: Mushroom tyrosinase inhibitory activity (L-tyrosine substrate, OD 475 nm); assay type: biochemical
Protocol: Mushroom tyrosinase (Sigma-Aldrich Co., St. Louis, MO, USA) was used for in vitro assays with slight modifications from a previously described method. […] After 5 min incubation at room temperature, 0.1 mL L-tyrosine (2 mM) was added and incubated for additional 20 min.

Mushroom tyrosinase, sequence (C7FF04 2-392): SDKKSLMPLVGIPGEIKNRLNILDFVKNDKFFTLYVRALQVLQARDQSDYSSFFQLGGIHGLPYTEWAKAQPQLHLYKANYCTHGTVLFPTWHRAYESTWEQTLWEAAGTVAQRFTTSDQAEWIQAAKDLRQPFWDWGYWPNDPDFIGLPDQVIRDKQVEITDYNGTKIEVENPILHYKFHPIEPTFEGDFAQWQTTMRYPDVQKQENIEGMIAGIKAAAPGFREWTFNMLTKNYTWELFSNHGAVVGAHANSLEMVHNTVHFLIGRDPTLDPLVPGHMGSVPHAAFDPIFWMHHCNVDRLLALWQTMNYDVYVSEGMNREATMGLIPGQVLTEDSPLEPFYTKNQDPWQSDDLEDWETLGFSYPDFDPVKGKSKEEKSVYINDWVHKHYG
Mushroom tyrosinase, sequence (G1K3P4 entry or part of it, further chain): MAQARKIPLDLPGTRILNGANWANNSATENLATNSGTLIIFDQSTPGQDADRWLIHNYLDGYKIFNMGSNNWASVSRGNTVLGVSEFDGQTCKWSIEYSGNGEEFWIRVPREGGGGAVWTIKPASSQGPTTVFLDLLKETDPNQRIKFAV

COc1cc(C2Oc3cc([C@H]4Oc5cc(O)cc(O)c5C(=O)[C@@H]4O)ccc3OC2CO)ccc1O (stereo partly drawn) [silybin (1), silybin]
type of tyrosinase inhibition (tyrosinase): mixed type I (KI < KIS) inhibition

OC[C@H]1O[C@@H](Oc2ccc(O)cc2)[C@H](O)[C@@H](O)[C@@H]1O [Arbutin, reference compound]
inhibition at 2300 µg/mL (Mushroom tyrosinase; concentration 2300 μg/mL, positive control): 50 ± 2.1%

COc1cc(C2Oc3cc([C@H]4Oc5cc(O)cc(O)c5C(=O)[C@@H]4O)ccc3OC2CO)ccc1O (stereo partly drawn) [Compound 0]
IC50 (Mushroom tyrosinase; non-irradiated and irradiated silybin samples, arbutin positive control, L-tyrosine 2 mM, pH 6.5): >200 µg/mL
Inhibition of Tyrosinase (%) (Mushroom tyrosinase; sample concentration 50 μg/mL, L-tyrosine 2 mM, pH 6.5): 5.2 ± 0.2%
Inhibition of Tyrosinase (%) (Mushroom tyrosinase; sample concentration 100 μg/mL, L-tyrosine 2 mM, pH 6.5): 11.4 ± 0.5%
Inhibition of Tyrosinase (%) (Mushroom tyrosinase; sample concentration 200 μg/mL, L-tyrosine 2 mM, pH 6.5): 26.5 ± 0.8%
